Assays:
human SGLT2 = molecular target: T1, human SGLT2 (Homo sapiens, UniProt P31639); assay: Assay for SGLT2 inhibition (14C-AMG uptake in CHOK1 cells expressing human SGLT2); type: cell-based; settings: CHOK1 cells expressing human SGLT2, 14C-AMG uptake 0.5 mM, 2 hours at 37° C.
T1 construct: expressed in transfected cells; host or cells: CHOK1 cells (kept under Geneticin selection)
T1 sequence (P31639 1-672): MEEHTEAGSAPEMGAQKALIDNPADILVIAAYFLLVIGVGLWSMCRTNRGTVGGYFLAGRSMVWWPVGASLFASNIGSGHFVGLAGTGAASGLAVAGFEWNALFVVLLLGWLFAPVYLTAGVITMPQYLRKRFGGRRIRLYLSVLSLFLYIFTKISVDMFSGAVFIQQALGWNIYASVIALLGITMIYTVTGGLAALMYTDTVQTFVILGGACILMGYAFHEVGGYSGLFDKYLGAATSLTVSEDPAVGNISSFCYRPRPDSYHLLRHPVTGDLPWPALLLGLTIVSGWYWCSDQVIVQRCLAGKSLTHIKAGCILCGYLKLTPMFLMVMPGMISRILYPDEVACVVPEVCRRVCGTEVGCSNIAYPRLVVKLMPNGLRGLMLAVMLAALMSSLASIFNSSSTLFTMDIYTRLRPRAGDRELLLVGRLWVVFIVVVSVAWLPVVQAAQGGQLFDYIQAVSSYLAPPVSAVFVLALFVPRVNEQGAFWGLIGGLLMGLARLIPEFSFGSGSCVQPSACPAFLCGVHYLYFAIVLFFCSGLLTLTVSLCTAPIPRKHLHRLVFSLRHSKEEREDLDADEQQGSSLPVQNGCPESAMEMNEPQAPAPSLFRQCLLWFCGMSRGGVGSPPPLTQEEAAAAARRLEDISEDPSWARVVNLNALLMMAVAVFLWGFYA
Experimental: 1. Assay for SGLT2 Inhibition
Compounds described in the above examples were used for the SGLT2 inhibition assay.
CHOK1 cells expressing human SGLT2 were seeded in 24-well plates at a density of 400,000 cells/well in F-12 nutrient mixture (Ham's F-12) containing 10% fetal bovine serum, 400 μg/ml Geneticin, 50 units/ml sodium penicillin G (Gibco-BRL) and 50 μg/ml streptomycin sulfate. After 2 days of culture at 37° C. in a humidified atmosphere containing 5% CO2, cells were washed once with the assay buffer (137 mM NaCl, 5 mM KCl, 1 mM CaCl2, 1 mM MgCl2, 50 mM Hepes, and 20 mM Tris, pH 7.4) and incubated with 250 μl of the buffer containing test compounds for 10 min at 37° C. Test compounds were dissolved in DMSO. The final concentration of DMSO was 0.5%. The transport reaction was initiated by addition of 50 μl [^14C]-methyl-α-D-glucopyranoside (^14C-AMG) solution (final concentration, 0.5 mM). After incubation for 2 hours at 37° C., the uptake was stopped by aspiration of the incubation mixture, the cells were washed three times with ice-cold PBS. Then, cells were solubilized with 0.3 N NaOH and aliquots were taken for determination of radioactivity by a liquid scintillation counter. Nonspecific AMG uptake was defined as that which occurred in the presence of 100 μM of phlorizin, a specific inhibitor of sodium-dependent glucose cotransporter. Specific uptake was normalized for the protein concentrations measured by the method of Bradford. The 50% inhibitory concentration (IC50) values were calculated from dose-response curves by least square method.

[1] = tested on: male Sprague-Dawley (SD) rats; assay: Urinary glucose excretion test in rats; type: in vivo, rat; settings: 30 mg/kg by oral gavage, urine collected for 24 hours, daily amount of glucose excreted per individual
Experimental: 2. Urinary Glucose Excretion Test in Rats
Compounds described in the above examples were used for the Urinary glucose excretion test in rats.
6-week-old male Sprague-Dawley (SD) rats were housed in individual metabolic cages with free access to food and water from 2 days prior to the experiment. On the morning of the experiment, rats were administered vehicle (0.2% carboxymethyl cellulose solution containing 0.2% Tween80) or test compounds (30 mg/kg) by oral gavage at a volume of 10 ml/kg. Then, urine of the rat was collected for 24 hours, and the urine volume was measured. Subsequently, the glucose concentration in urine was quantified using the enzymatic assay kit and the daily amount of glucose excreted in urine per individual was calculated.

diabetic animal models = settings: continuous subcutaneous administration; cited from earlier work

Structure (SMILES): Cc1cccc2c1c(Cc1ccc(Cl)cc1)cn2[C@@H]1S[C@H](CO)[C@@H](O)[C@H](O)[C@H]1O [Example 20]
- IC50 (human SGLT2): 180 nM

Structure (SMILES): OC[C@H]1S[C@@H](n2cc(Cc3ccc(C(F)F)cc3)c3c(Cl)cccc32)[C@H](O)[C@@H](O)[C@@H]1O [Example 34]
- IC50 (human SGLT2): 35 nM

Structure (SMILES): OC[C@H]1S[C@@H](n2cc(Cc3ccc(-c4ccccn4)s3)c3c(Cl)cccc32)[C@H](O)[C@@H](O)[C@@H]1O [Example 33]
- IC50 (human SGLT2): 10 nM

Structure (SMILES): CCOc1ccc(Cc2cn([C@@H]3S[C@H](CO)[C@@H](O)[C@H](O)[C@H]3O)c3cccc(C)c23)cc1 [Example 19]
- IC50 (human SGLT2): 46 nM

Structure (SMILES): CCc1ccc(Cc2cn([C@@H]3S[C@H](CO)[C@@H](O)[C@H](O)[C@H]3O)c3cccc(Cl)c23)cc1 [Example 2, 4-Chloro-3-(4-ethylphenylmethyl)-1-(5-thio-β-D-glucopyranosyl)indole]
- IC50 (human SGLT2): 21 nM
- Urinary glucose [1]: B (2400 mg>B≧2000 mg)

Structure (SMILES): OC[C@H]1S[C@@H](n2cc(Cc3ccc(-c4ccc(F)nc4)s3)c3c(Cl)cccc32)[C@H](O)[C@@H](O)[C@@H]1O [Example 26]
- IC50 (human SGLT2): 190 nM

Structure (SMILES): CCc1ccc(Cc2cn([C@@H]3S[C@H](CO)[C@@H](O)[C@H](O)[C@H]3O)c3cccc(Cl)c23)s1 [Example 25]
- IC50 (human SGLT2): 67 nM

Structure (SMILES): N#Cc1cccc(-c2ccc(Cc3cn([C@@H]4S[C@H](CO)[C@@H](O)[C@H](O)[C@H]4O)c4cccc(Cl)c34)s2)c1 [Example 22]
- IC50 (human SGLT2): 210 nM

Structure (SMILES): OC[C@H]1S[C@@H](n2cc(Cc3ccc(I)cc3)c3c(F)cccc32)[C@H](O)[C@@H](O)[C@@H]1O [Example 17]
- IC50 (human SGLT2): 63 nM

Structure (SMILES): OC[C@H]1S[C@@H](n2cc(Cc3ccc(Br)s3)c3c(Cl)cccc32)[C@H](O)[C@@H](O)[C@@H]1O [Example 23]
- IC50 (human SGLT2): 170 nM

Structure (SMILES): CCc1ccc(Cc2cn([C@@H]3S[C@H](CO)[C@@H](O)[C@H](O)[C@H]3O)c3ccccc23)cc1 [Example 1, 3-(4-Ethylphenylmethyl)-1-(5-thio-β-D-glucopyranosyl)indole]
- IC50 (human SGLT2): 180 nM

Structure (SMILES): OC[C@H]1S[C@@H](n2cc(Cc3ccc(Cl)cc3)c3c(Cl)cccc32)[C@H](O)[C@@H](O)[C@@H]1O [Example 13]
- IC50 (human SGLT2): 110 nM

Structure (SMILES): O[C@@H]1[C@@H](O)[C@H](c2ccc(Cl)c(Cc3ccc(-c4ccccc4)s3)c2)O[C@H](CF)[C@H]1O [Example 6, 4-Chloro-3-(5-phenyl-2-thienylmethyl)-1-(6-fluoro-6-deoxy-β-D-glucopyranosyl)benzene]
- IC50 (human SGLT2): 31 nM

Structure (SMILES): CSc1ccc(Cc2cn([C@@H]3S[C@H](CO)[C@@H](O)[C@H](O)[C@H]3O)c3cccc(Cl)c23)cc1 [Example 10]
- IC50 (human SGLT2): 22 nM

Structure (SMILES): OC[C@H]1S[C@@H](n2cc(Cc3ccc(OC(F)F)cc3)c3c(Cl)cccc32)[C@H](O)[C@@H](O)[C@@H]1O [Example 30]
- IC50 (human SGLT2): 54 nM

Structure (SMILES): OC[C@H]1S[C@@H](n2cc(Cc3ccc(Br)cc3)c3c(Cl)cccc32)[C@H](O)[C@@H](O)[C@@H]1O [Example 14]
- IC50 (human SGLT2): 97 nM

Structure (SMILES): Cc1cccc2c1c(Cc1ccc(C3CC3)cc1)cn2[C@@H]1S[C@H](CO)[C@@H](O)[C@H](O)[C@H]1O [Example 28]
- IC50 (human SGLT2): 19 nM

Structure (SMILES): OC[C@H]1O[C@@H](c2ccc(Cl)c(Cc3cc4ccccc4s3)c2)[C@H](O)[C@@H](O)[C@H]1F [Example 5, 3-(Benzo[b]thiophen-2-ylmethyl)-4-chloro-1-(4-fluoro-4-deoxy-β-D-galactopyranosyl)benzene]
- melting point: 153 to 154 °C
- IC50 (human SGLT2): 5.3 nM
- Urinary glucose [1]: A (A≧2400 mg)

Structure (SMILES): OC[C@H]1S[C@@H](n2cc(Cc3ccc4ccccc4c3)c3c(Cl)cccc32)[C@H](O)[C@@H](O)[C@@H]1O [Example 16]
- IC50 (human SGLT2): 130 nM

Structure (SMILES): OC[C@H]1S[C@@H](n2cc(Cc3ccc4occc4c3)c3c(Cl)cccc32)[C@H](O)[C@@H](O)[C@@H]1O [Example 8]
- IC50 (human SGLT2): 41 nM

Structure (SMILES): O=C(CCc1ccc(O)cc1)c1c(O)cc(O)cc1O[C@@H]1O[C@H](CO)[C@@H](O)[C@H](O)[C@H]1O [phlorizin]
- blood glucose level (diabetic animal models): normalized

Structure (SMILES): OC[C@H]1O[C@@H](c2ccc(Cl)c(Cc3cc4ccccc4s3)c2)[C@H](O)[C@@H](O)[C@H]1O [Example 35]
- IC50 (human SGLT2): 17 nM

Structure (SMILES): OC[C@H]1S[C@@H](n2cc(Cc3ccc(-c4cccs4)cc3)c3c(F)cccc32)[C@H](O)[C@@H](O)[C@@H]1O [Example 31]
- IC50 (human SGLT2): 150 nM

Structure (SMILES): COc1ccc(Cc2cn([C@@H]3S[C@H](CO)[C@@H](O)[C@H](O)[C@H]3O)c3cccc(Cl)c23)cc1 [Example 15]
- IC50 (human SGLT2): 15 nM

Structure (SMILES): CCc1ccc(Cc2cn([C@@H]3O[C@H](CO)[C@@H](F)[C@H](O)[C@H]3O)c3ncccc23)cc1 [Example 36]
- IC50 (human SGLT2): 120 nM

Structure (SMILES): OC[C@H]1S[C@@H](n2cc(Cc3ccc4occc4c3)c3c(F)cccc32)[C@H](O)[C@@H](O)[C@@H]1O [Example 18]
- IC50 (human SGLT2): 190 nM

Reference: patent US20080027014A1, “Novel SGLT inhibitors” (Tanabe Seiyaku Co., Ltd., priority 2006, published 2008)
